Measurements as given in US8134007B2, “Pyridine derivatives” (Pfizer Inc., priority 2007, dated 2012).

What was measured:
Type in all cases: cell-based
[1] = target: T1, Human Nav1.5 (Homo sapiens, UniProt Q14524); assay: Nav1.5 Assay (VIPR, HEK293 cells); details: HEK293 cells expressing Human Nav1.5; average of replicates; read-out: Nav1.5 IC50
T1 construct: expressed in transfected cells; host or cells: HEK293
Description: The Nav1.5 assay is performed in HEK293 cells expressing Human Nav1.5 in the same way as the Nav1.8 assay.
Where replicate experiments were conducted resulting in multiple sets of data for a test compound, the data presented represent the average value from all replicate experiments.

[2] = target: T2, Human Nav1.8 (Homo sapiens, UniProt Q9Y5Y9); assay: VIPR Assay for Nav1.8 Compounds (FRET membrane potential, deltamethrin opener); details: VIPR FRET membrane potential assay, deltamethrin opener; average of replicates; read-out: Nav1.8 IC50
T2 construct: expressed in transfected cells; host or cells: HEK293
T2 sequence (Q9Y5Y9 whole entry): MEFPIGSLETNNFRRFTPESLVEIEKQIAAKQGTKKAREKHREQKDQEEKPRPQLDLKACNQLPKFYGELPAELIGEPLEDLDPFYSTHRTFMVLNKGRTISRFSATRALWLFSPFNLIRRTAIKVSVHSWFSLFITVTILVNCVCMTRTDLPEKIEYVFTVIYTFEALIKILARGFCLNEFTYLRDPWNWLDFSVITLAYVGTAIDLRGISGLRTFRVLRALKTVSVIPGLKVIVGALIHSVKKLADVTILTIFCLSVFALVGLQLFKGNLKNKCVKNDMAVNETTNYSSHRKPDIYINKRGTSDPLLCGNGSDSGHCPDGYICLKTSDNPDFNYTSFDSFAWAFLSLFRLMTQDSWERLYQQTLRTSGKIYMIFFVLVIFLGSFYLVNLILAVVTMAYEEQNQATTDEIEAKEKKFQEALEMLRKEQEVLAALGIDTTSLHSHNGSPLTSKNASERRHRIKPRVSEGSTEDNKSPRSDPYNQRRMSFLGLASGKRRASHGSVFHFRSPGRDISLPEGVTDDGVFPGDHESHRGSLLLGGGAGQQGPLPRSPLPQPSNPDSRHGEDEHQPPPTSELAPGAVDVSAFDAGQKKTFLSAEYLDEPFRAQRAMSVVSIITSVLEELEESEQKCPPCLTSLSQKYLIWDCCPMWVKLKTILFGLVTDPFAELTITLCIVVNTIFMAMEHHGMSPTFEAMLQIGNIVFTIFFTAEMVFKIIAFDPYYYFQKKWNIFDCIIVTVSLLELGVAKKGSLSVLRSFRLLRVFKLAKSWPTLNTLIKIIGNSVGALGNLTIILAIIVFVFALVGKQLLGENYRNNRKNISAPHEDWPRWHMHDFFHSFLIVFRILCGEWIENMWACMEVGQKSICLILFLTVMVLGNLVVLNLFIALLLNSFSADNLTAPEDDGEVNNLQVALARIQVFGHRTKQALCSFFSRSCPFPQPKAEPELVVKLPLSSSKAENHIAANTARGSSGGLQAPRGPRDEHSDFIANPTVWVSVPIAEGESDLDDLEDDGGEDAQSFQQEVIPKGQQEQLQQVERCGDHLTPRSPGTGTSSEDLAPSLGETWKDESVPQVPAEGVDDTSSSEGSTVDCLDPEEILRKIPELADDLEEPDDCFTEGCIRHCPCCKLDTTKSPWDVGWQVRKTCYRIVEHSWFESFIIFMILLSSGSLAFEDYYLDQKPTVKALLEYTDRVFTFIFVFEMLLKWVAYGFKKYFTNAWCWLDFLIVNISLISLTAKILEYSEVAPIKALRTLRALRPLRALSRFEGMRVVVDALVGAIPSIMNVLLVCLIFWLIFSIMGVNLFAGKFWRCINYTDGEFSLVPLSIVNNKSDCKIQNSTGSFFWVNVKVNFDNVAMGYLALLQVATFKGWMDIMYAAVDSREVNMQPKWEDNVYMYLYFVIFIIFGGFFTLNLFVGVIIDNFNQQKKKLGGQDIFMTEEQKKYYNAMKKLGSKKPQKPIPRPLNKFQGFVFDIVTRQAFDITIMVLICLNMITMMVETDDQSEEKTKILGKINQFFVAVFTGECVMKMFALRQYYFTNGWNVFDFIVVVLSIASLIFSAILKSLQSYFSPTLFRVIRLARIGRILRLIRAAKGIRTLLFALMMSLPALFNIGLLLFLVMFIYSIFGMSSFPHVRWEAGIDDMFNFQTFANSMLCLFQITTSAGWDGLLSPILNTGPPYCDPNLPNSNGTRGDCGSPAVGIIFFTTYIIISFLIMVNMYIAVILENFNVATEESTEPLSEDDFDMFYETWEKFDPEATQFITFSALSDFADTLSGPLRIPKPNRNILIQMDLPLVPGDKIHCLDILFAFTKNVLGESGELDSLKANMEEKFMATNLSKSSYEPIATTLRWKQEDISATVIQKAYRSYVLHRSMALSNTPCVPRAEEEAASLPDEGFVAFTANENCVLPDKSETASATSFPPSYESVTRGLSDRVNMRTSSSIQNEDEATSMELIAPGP

[3] = system: tetrodotoxin-sensitive voltage-gated sodium channels including NaV1.2, NaV1.3 and NaV1.7; assay: TTX-S Assay (VIPR, SHSY-5Y cell line, veratridine opener); details: read-out: TTX-S IC50, veratridine 50 μM opener, average of replicates

T1 sequence (Q14524 whole entry): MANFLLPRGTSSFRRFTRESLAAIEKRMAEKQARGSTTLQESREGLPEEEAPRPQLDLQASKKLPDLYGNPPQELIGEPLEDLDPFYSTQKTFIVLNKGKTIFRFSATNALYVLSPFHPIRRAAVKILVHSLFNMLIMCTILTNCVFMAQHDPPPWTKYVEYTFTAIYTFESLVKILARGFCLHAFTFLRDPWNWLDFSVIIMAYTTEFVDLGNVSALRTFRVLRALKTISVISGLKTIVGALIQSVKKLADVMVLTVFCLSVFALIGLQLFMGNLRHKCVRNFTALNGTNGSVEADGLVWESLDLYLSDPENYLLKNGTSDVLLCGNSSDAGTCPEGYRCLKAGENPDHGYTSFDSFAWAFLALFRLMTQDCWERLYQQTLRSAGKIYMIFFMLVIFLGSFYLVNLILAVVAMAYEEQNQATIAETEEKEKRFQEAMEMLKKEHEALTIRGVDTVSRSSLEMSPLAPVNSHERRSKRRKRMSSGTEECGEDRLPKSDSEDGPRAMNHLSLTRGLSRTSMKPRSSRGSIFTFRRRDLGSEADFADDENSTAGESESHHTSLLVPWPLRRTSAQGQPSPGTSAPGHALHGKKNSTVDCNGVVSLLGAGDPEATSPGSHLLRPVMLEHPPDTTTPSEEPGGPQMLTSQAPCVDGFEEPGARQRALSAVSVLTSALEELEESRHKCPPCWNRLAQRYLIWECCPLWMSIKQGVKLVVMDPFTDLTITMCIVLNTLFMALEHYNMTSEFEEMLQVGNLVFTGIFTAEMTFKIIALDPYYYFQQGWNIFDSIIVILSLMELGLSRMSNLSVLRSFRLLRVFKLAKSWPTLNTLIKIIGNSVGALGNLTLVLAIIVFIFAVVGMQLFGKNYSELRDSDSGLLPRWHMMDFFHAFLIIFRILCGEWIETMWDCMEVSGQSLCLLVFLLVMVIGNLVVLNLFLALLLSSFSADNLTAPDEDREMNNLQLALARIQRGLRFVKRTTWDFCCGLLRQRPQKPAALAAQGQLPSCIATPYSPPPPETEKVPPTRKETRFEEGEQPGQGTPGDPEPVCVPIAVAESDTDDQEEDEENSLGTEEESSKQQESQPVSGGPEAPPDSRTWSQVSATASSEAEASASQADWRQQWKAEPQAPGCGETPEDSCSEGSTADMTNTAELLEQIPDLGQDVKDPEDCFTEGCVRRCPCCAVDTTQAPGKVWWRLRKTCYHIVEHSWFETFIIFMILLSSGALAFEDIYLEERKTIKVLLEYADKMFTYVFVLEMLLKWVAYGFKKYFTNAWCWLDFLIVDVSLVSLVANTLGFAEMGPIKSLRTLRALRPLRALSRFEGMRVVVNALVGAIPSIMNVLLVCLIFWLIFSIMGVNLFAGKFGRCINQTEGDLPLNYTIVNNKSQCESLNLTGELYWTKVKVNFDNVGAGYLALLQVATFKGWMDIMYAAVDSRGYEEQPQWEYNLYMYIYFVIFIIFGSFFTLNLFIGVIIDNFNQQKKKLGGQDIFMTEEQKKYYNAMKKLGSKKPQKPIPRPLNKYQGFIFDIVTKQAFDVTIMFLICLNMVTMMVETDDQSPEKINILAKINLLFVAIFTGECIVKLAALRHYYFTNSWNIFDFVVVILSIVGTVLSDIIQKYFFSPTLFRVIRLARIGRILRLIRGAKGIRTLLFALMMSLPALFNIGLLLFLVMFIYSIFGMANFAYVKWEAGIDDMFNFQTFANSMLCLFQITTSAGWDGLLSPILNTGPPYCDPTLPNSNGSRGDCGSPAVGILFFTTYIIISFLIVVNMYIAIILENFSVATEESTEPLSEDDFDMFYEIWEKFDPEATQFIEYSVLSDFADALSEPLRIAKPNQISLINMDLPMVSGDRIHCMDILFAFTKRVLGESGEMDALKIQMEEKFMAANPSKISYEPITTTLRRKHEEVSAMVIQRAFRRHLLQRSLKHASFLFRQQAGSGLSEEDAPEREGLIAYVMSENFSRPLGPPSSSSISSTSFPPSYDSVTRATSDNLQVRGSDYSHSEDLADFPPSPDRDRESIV

Row | Structure (SMILES) | IC50 [1] | IC50 [2] | IC50 [3]
1 | Cn1nncc1C(=O)Nc1ccc(-c2ccccc2Cl)c(N)n1 [Example 82, N-[6-Amino-5-(2-chlorophenyl)pyridin-2-yl]-1-methyl-1H-1,2,3-triazole-5-carboxamide] | > 32 µM | 9.3 µM | > 32 µM
2 | COc1ccc(Cl)c(-c2ccc(NC(=O)c3cnnn3C)nc2N)c1 [Example 83, N-[6-Amino-5-(2-chloro-5-methoxyphenyl)pyridin-2-yl]-1-methyl-1H-1,2,3-triazole-5-carboxamide] | 4.1 µM | 3.3 µM | 12 µM
3 | Cn1nncc1C(=O)Nc1ccc(-c2cc(Cl)cc(Cl)c2Cl)c(N)n1 [Example 84, N-[6-Amino-5-(2,3,5-trichlorophenyl)pyridin-2-yl]-1-methyl-1H-1,2,3-triazole-5-carboxamide] | 5.3 µM | 2.4 µM | 6.5 µM
4 | Cn1nncc1C(=O)Nc1ccc(-c2ccccc2OC(F)(F)F)c(N)n1 [Example 85, N-{6-Amino-5-[2-(trifluoromethoxy)phenyl]pyridin-2-yl}-1-methyl-1H-1,2,3-triazole-5-carboxamide] | 31 µM | 7 µM | 28 µM
5 | Cn1nncc1C(=O)Nc1ccc(-c2cc(F)ccc2Cl)c(N)n1 [Example 86, N-[6-Amino-5-(2-chloro-5-fluorophenyl)pyridin-2-yl]-1-methyl-1H-1,2,3-triazole-5-carboxamide] | 7.5 µM | 5.3 µM | 19 µM
6 | COc1cc(Cl)cc(-c2ccc(NC(=O)c3cnnn3C)nc2N)c1Cl [Example 87, N-[6-Amino-5-(2,5-dichloro-3-methoxyphenyl)pyridin-2-yl]-1-methyl-1H-1,2,3-triazole-5-carboxamide] | 9.9 µM | 6.1 µM | 15 µM
7 | COCc1nocc1C(=O)Nc1ccc(-c2ccccc2OC(F)(F)F)c(N)n1 [Example 88, N-{6-Amino-5-[2-(trifluoromethoxy)phenyl]pyridin-2-yl}-3-(methoxymethyl)isoxazole-4-carboxamide] | 9.8 µM | 1.5 µM | 7.3 µM
8 | COCc1nocc1C(=O)Nc1ccc(-c2ccccc2Cl)c(N)n1 [Example 89, N-[6-Amino-5-(2-chlorophenyl)pyridin-2-yl]-3-(methoxymethyl)isoxazole-4-carboxamide] | > 32 µM | 4.4 µM | > 32 µM
9 | COCc1nocc1C(=O)Nc1ccc(-c2cc(F)ccc2Cl)c(N)n1 [Example 90, N-[6-Amino-5-(2-chloro-5-fluorophenyl)pyridin-2-yl]-3-(methoxymethyl)isoxazole-4-carboxamide] | > 32 µM | 0.55 µM | > 32 µM
10 | COCc1oncc1C(=O)Nc1ccc(-c2ccccc2Cl)c(N)n1 [Example 91] | > 32 µM | 2.6 µM | > 32 µM
11 | COCc1oncc1C(=O)Nc1ccc(-c2cc(F)ccc2Cl)c(N)n1 [Example 92] | 19 µM | 0.57 µM | 17 µM
12 | COCc1oncc1C(=O)Nc1ccc(-c2ccccc2OC(F)(F)F)c(N)n1 [Example 93] | > 32 µM | 1.5 µM | 7.1 µM
13 | COCc1cc(C(=O)Nc2ccc(-c3ccccc3OC(F)(F)F)c(N)n2)on1 [Example 94] | 31 µM | > 32 µM | 19 µM
14 | COCc1cc(C(=O)Nc2ccc(-c3ccccc3Cl)c(N)n2)on1 [Example 95] | > 32 µM | > 32 µM | 29 µM
15 | COCc1cc(C(=O)Nc2ccc(-c3cc(F)ccc3Cl)c(N)n2)on1 [Example 96] | 7.1 µM | 5.9 µM | 12 µM
16 | Nc1nc(NC(=O)c2ccccc2)ccc1-c1ccccc1OC(F)(F)F [Example 99] | 15 µM | 3.2 µM | 6.6 µM

Row | Structure (SMILES) | IC50 [1] | IC50 [2] | IC50 [3]
17 | N#Cc1cccc(C(=O)Nc2ccc(-c3ccccc3OC(F)(F)F)c(N)n2)c1 [Example 106, N-{6-Amino-5-[2-(trifluoromethoxy)phenyl]pyridin-2-yl}-3-cyanobenzamide] | 16 µM | 5.3 µM | 8.1 µM
18 | N#Cc1ccccc1C(=O)Nc1ccc(-c2ccccc2OC(F)(F)F)c(N)n1 [Example 107, N-{6-Amino-5-[2-(trifluoromethoxy)phenyl]pyridin-2-yl}-2-cyanobenzamide] | 2.5 µM | 2.5 µM | 3.1 µM
19 | Cc1n[nH]cc1C(=O)Nc1ccc(-c2ccccc2OC(F)(F)F)c(N)n1 [Example 108, N-{6-Amino-5-[2-(trifluoromethoxy)phenyl]pyridin-2-yl}-3-methyl-1H-pyrazole-4-carboxamide] | > 32 µM | 26 µM | 27 µM
20 | Nc1nc(NC(=O)c2conc2C(F)(F)F)ccc1-c1ccccc1Cl [Example 111] | 16 µM | 0.51 µM | 6.1 µM
21 | Nc1nc(NC(=O)c2conc2C(F)(F)F)ccc1-c1ccccc1OC(F)(F)F [Example 112] | 7.7 µM | 0.94 µM | 4.5 µM
22 | COc1ccc(Cl)c(-c2ccc(NC(=O)c3conc3C(F)(F)F)nc2N)c1 [Example 113] | 14 µM | 3.8 µM | 8.7 µM
23 | Nc1nc(NC(=O)c2conc2C(F)(F)F)ccc1-c1cc(F)ccc1Cl [Example 114] | 4.1 µM | 0.31 µM | 4 µM
24 | Cc1nocc1C(=O)Nc1ccc(-c2cc(F)ccc2OC(F)(F)F)c(N)n1 [Example 115] | 7.9 µM | 0.28 µM | 5.3 µM
25 | Cn1nccc1C(=O)Nc1ccc(-c2cc(F)ccc2OC(F)(F)F)c(N)n1 [Example 116] | 28 µM | 2.3 µM | 26 µM
26 | Cn1nccc1C(=O)Nc1ccc(-c2ccccc2OCC(F)(F)F)c(N)n1 [Example 119] | 31 µM | 2 µM | 26 µM
27 | Cn1nccc1C(=O)Nc1ccc(-c2ccc(OC(F)(F)F)cc2)c(N)n1 [Example 120] | 10 µM | 12 µM | 5.2 µM
28 | Cn1nccc1C(=O)Nc1ccc(-c2ccc(OC(F)(F)F)c(F)c2)c(N)n1 [Example 121] | 8.6 µM | 10 µM | 3.2 µM
29 | Cn1nccc1C(=O)Nc1ccc(-c2ccc(OCC(F)(F)F)cc2)c(N)n1 [Example 122] | 14 µM | 19 µM | 12 µM
30 | Cc1nocc1C(=O)Nc1ccc(-c2cccc(C(F)(F)F)c2Cl)c(N)n1 [Example 124] | 12 µM | 11 µM | 8.6 µM
31 | Cc1nocc1C(=O)Nc1ccc(-c2cc(F)ccc2O)c(N)n1 [Example 128] | > 32 µM | 15 µM | > 32 µM
32 | Cc1nocc1C(=O)Nc1ccc(-c2cc(O)ccc2Cl)c(N)n1 [Example 175, N-[6-amino-5-(2-chloro-5-hydroxyphenyl)pyridin-2-yl]-3-methylisoxazole-4-carboxamide] | > 32 µM | 23 µM | 20 µM
